The source made the active and inactive calls.
How the values were obtained:
[1] = target: Adenylate kinase 2, mitochondrial (Homo sapiens, UniProt P54819)
[2] = target: T1, ATP-dependent RNA helicase DDX42 (Homo sapiens, UniProt Q86XP3)
T1 sequence (Q86XP3 whole entry): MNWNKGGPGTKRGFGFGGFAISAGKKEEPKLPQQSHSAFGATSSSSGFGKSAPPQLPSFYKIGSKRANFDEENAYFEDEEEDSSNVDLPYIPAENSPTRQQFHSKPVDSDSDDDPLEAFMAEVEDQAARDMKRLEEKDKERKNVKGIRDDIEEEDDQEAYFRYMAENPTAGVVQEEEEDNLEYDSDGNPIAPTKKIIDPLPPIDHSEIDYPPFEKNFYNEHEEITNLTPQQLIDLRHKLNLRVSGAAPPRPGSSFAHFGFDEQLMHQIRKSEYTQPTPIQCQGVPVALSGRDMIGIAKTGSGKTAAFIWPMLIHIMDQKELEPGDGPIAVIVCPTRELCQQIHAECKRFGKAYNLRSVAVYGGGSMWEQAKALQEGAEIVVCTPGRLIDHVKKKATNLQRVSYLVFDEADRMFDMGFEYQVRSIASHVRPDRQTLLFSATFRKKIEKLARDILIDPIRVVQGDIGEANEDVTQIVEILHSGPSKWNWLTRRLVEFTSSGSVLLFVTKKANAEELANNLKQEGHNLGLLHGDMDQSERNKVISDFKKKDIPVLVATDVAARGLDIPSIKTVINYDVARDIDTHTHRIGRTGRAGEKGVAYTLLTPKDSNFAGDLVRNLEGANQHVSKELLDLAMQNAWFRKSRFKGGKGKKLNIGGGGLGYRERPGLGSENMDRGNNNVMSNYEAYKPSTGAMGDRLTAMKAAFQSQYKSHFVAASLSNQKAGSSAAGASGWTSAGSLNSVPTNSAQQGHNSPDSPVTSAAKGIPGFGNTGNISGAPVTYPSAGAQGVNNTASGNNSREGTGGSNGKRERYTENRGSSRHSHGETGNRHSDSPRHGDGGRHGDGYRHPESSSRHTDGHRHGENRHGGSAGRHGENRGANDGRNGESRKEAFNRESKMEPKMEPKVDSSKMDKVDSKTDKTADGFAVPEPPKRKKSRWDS

Myosin-14 = Myosin-14 (Homo sapiens, UniProt Q7Z406)
Pyridoxal kinase = target: T2, Pyridoxal kinase (Homo sapiens, UniProt O00764)
T2 sequence (O00764 whole entry): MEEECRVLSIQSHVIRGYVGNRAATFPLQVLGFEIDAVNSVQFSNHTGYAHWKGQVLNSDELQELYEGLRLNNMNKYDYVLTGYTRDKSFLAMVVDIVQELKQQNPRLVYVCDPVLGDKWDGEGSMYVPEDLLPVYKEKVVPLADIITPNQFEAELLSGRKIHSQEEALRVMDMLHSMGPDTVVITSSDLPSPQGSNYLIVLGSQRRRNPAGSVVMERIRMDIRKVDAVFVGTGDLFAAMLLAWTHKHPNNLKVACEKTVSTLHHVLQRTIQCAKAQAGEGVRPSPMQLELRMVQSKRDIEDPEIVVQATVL

[3] = target: T3, Ras-related protein Rab-10 (Homo sapiens, UniProt P61026)
T3 sequence (P61026 whole entry): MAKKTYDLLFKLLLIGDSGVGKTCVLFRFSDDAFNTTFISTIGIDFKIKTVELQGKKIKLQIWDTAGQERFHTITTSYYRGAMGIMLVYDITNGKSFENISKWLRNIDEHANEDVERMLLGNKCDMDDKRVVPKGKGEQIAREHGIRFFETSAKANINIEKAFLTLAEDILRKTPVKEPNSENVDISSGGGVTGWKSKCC

[4] = target: Ras-related protein Rab-6A (Homo sapiens, UniProt P20340)
[5] = target: Ribosomal protein S6 kinase alpha-3 (Homo sapiens, UniProt P51812)
ADP/ATP translocase 3 = target: T4, ADP/ATP translocase 3 (Homo sapiens, UniProt P12236)
T4 sequence (P12236 whole entry): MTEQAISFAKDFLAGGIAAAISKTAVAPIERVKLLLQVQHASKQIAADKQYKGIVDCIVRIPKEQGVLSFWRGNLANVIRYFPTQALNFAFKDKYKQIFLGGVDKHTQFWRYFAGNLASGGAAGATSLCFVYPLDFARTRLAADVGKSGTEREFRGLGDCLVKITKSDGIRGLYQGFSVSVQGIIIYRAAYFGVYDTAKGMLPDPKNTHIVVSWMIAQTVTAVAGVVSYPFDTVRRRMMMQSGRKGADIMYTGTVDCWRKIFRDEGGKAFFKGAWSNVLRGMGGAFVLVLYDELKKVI

[6] = target: T5, Serine/threonine-protein kinase TBK1 (Homo sapiens, UniProt Q9UHD2)
T5 sequence (Q9UHD2 whole entry): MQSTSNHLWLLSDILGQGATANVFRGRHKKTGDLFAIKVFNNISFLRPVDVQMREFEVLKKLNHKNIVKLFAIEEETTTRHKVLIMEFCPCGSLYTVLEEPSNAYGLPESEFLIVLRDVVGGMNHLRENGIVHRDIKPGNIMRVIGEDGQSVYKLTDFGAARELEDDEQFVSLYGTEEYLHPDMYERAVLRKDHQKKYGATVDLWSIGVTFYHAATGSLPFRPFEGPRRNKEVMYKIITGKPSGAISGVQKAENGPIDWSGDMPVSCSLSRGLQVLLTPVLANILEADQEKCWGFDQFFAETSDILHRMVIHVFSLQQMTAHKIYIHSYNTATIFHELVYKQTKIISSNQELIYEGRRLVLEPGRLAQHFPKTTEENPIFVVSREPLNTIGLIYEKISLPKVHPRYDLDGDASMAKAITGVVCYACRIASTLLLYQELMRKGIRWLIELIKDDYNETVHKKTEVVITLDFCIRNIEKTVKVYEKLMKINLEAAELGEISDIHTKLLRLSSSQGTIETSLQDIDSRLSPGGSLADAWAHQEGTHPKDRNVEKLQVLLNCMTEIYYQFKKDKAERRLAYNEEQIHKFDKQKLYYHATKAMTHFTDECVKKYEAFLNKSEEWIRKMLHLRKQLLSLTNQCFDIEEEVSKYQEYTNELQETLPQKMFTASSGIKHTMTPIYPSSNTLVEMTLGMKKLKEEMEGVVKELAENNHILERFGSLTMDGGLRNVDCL

[7] = target: DNA topoisomerase 2-alpha (Homo sapiens, UniProt P11388)
Wee1-like protein kinase = Wee1-like protein kinase (Homo sapiens, UniProt P30291)
Adenosine kinase = Adenosine kinase (Homo sapiens, UniProt P55263)

Measured: Kd
Further: in the data inactive means no Kd found up to 30 µM.

DNA topoisomerase 2-alpha, sequence (P11388 whole entry): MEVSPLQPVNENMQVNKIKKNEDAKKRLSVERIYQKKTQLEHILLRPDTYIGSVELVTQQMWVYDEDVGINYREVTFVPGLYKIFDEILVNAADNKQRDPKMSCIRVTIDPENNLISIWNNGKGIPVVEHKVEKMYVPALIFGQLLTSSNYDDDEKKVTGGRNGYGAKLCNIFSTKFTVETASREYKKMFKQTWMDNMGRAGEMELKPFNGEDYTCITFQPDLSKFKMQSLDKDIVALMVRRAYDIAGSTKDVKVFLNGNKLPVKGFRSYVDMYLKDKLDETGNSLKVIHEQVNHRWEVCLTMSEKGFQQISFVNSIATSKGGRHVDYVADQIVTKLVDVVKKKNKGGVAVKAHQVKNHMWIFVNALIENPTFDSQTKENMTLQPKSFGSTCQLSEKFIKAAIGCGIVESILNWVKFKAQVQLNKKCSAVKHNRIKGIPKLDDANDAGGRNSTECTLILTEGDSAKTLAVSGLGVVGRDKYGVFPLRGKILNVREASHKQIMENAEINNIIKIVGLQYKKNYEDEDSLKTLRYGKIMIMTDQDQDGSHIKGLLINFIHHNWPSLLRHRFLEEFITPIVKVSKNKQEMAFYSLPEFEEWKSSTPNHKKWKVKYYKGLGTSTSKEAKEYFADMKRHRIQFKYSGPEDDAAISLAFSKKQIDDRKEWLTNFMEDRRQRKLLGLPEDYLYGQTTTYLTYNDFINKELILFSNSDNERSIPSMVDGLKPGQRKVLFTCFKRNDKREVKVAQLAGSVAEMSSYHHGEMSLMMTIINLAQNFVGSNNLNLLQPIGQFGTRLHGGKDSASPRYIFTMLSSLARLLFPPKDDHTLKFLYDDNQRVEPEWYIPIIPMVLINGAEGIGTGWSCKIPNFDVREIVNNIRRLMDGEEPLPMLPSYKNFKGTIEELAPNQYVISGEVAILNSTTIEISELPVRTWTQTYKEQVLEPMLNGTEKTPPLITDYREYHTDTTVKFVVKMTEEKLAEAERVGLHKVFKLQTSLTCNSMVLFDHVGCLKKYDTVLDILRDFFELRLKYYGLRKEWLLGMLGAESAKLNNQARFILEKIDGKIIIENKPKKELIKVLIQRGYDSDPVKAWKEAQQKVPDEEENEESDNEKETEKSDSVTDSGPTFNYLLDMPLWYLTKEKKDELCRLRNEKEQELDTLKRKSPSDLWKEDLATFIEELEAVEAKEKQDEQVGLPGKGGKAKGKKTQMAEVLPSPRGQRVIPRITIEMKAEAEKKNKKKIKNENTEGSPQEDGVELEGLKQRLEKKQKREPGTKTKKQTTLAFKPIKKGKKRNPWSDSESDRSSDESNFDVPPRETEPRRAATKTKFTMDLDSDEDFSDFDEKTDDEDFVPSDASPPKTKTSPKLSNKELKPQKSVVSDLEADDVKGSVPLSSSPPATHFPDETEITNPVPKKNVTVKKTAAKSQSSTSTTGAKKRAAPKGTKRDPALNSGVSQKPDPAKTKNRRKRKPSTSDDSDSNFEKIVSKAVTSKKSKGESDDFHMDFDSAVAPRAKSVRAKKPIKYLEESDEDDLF
Ribosomal protein S6 kinase alpha-3, sequence (P51812 whole entry): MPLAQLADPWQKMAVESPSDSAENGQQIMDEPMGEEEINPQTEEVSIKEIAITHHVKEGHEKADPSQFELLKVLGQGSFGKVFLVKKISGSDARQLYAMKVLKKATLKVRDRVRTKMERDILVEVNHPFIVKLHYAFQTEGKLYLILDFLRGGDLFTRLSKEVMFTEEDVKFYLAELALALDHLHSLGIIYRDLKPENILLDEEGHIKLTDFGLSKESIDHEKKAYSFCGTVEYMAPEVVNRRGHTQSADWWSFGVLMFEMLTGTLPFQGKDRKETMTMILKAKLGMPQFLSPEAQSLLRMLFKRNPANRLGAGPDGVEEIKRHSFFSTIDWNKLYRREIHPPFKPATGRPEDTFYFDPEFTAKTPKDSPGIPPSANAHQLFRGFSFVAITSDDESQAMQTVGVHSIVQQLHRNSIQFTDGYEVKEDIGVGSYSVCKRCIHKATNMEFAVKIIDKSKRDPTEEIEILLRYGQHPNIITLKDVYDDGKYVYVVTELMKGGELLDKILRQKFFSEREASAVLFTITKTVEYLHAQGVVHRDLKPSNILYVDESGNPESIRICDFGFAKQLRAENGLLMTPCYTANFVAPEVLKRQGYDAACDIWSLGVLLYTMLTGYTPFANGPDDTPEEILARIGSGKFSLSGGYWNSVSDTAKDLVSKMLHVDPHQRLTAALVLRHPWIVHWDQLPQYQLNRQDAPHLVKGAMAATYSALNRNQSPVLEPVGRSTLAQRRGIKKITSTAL
Myosin-14, sequence (Q7Z406 whole entry): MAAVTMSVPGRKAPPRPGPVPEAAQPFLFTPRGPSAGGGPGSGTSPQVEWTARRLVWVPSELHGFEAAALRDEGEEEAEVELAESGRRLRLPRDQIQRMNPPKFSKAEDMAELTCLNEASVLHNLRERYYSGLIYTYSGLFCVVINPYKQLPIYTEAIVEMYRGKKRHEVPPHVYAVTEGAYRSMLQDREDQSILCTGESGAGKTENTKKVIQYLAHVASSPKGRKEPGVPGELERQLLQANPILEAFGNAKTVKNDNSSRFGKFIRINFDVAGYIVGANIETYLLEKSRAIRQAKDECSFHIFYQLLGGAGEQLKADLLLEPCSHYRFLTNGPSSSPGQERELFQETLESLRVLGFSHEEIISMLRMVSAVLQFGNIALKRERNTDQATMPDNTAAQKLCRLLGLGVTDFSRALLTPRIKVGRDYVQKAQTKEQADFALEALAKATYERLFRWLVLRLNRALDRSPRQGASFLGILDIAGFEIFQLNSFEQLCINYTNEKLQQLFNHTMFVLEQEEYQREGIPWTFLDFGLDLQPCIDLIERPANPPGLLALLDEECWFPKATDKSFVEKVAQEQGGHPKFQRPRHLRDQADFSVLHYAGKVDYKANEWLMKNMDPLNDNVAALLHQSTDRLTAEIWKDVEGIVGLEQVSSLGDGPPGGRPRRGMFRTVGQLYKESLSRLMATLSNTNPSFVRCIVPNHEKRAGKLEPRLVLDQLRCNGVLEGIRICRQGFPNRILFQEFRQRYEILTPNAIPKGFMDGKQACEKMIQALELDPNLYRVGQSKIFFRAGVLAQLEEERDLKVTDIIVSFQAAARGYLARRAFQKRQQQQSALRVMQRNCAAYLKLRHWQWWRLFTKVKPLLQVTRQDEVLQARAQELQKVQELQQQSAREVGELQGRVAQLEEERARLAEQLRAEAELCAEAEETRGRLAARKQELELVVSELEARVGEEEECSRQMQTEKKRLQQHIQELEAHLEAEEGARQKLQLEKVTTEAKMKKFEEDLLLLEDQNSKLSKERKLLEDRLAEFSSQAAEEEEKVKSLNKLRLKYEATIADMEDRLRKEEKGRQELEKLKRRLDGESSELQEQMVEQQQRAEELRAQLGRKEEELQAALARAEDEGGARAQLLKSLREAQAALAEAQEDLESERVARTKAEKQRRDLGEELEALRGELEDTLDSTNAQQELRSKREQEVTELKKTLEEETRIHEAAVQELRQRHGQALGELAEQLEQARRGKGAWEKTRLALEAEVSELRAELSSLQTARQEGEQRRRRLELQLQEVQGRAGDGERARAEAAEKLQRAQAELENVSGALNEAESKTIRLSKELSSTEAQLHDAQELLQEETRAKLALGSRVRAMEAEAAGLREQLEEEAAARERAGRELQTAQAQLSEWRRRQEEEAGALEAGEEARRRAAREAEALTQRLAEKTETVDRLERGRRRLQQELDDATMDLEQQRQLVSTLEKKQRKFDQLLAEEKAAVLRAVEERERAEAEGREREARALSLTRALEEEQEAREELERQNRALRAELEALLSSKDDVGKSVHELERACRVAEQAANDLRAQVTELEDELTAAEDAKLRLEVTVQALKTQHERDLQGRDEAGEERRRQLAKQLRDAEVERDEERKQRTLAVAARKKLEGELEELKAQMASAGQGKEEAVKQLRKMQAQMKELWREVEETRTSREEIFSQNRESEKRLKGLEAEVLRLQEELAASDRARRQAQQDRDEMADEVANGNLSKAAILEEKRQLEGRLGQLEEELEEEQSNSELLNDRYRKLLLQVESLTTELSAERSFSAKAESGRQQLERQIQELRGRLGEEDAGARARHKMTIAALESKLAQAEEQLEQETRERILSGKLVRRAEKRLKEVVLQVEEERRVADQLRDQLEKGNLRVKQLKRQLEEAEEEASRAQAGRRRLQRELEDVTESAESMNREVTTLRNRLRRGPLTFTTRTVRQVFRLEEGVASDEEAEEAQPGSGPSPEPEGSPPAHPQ
Wee1-like protein kinase, sequence (P30291 whole entry): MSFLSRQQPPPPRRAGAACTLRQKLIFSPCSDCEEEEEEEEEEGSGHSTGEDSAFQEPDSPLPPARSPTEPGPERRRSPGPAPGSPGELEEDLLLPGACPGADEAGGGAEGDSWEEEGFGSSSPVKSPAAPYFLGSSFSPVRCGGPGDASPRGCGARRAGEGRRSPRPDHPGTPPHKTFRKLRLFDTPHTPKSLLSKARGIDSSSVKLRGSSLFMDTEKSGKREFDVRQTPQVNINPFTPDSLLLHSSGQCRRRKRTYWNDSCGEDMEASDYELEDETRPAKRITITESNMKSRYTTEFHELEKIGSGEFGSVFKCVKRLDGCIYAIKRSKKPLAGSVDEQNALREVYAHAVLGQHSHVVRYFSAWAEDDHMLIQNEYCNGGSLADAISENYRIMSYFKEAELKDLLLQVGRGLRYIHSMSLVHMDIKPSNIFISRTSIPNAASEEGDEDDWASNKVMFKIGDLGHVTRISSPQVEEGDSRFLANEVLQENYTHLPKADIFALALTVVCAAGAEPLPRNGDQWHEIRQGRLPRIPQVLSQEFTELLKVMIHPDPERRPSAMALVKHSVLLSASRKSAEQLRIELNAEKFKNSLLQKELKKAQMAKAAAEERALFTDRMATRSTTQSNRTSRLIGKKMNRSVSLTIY
Ras-related protein Rab-6A, sequence (P20340 whole entry): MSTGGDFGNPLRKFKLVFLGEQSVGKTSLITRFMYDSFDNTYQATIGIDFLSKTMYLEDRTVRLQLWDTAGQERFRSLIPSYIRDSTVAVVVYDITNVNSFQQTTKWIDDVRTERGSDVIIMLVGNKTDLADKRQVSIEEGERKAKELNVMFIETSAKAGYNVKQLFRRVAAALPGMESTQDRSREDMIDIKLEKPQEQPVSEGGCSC

Cn1ncc(Cl)c1-c1cc(C(=O)N[C@H](CN)Cc2cccc(F)c2)sc1Cl [AFURESERTIB]
inactive: [1] > 30 µM | [2] > 30 µM | Myosin-14 > 30 µM | Pyridoxal kinase > 30 µM | [3] > 30 µM | [4] > 30 µM | [5] > 30 µM | ADP/ATP translocase 3 > 30 µM | [6] > 30 µM | [7] > 30 µM | Wee1-like protein kinase > 30 µM

O=C(O)[C@]1(Cc2cccc(Nc3nccs3)n2)CC[C@@H](Oc2cccc(Cl)c2F)CC1 [MK-5108]
inactive: Adenosine kinase > 30 µM | [1] > 30 µM | [2] > 30 µM | Myosin-14 > 30 µM | Pyridoxal kinase > 30 µM | [3] > 30 µM | [4] > 30 µM | [5] > 30 µM | ADP/ATP translocase 3 > 30 µM | [6] > 30 µM | [7] > 30 µM | Wee1-like protein kinase > 30 µM

O=C1NC(=O)/C(=C/c2ccc3nccc(-c4ccncc4)c3c2)S1 [GSK-1059615]
inactive: Myosin-14 > 30 µM | Pyridoxal kinase > 30 µM | [3] > 30 µM | [4] > 30 µM | [5] > 30 µM | ADP/ATP translocase 3 > 30 µM | [6] > 30 µM | [7] > 30 µM | Wee1-like protein kinase > 30 µM

Cn1cc(-c2ccc3nnc(C(F)(F)c4ccc5ncccc5c4)n3n2)cn1 [JNJ-38877605]
inactive: Adenosine kinase > 30 µM | [1] > 30 µM | [2] > 30 µM | Myosin-14 > 30 µM | Pyridoxal kinase > 30 µM | [3] > 30 µM | [4] > 30 µM | [5] > 30 µM | ADP/ATP translocase 3 > 30 µM | [6] > 30 µM | [7] > 30 µM | Wee1-like protein kinase > 30 µM

CO[C@H]1C[C@@H]2CC[C@@H](C)[C@@](O)(O2)C(=O)C(=O)N2CCCC[C@H]2C(=O)O[C@H]([C@H](C)C[C@@H]2CC[C@@H](OCCO)[C@H](OC)C2)CC(=O)[C@H](C)/C=C(\C)[C@@H](O)[C@@H](OC)C(=O)[C@H](C)C[C@H](C)/C=C/C=C/C=C/1C [EVEROLIMUS]
inactive: Adenosine kinase > 30 µM | [1] > 30 µM | [2] > 30 µM | Myosin-14 > 30 µM | Pyridoxal kinase > 30 µM | [3] > 30 µM | [4] > 30 µM | [5] > 30 µM | ADP/ATP translocase 3 > 30 µM | [6] > 30 µM | [7] > 30 µM | Wee1-like protein kinase > 30 µM

CC(C)Nc1cc(-c2c[nH]c(C(=O)N[C@H](CO)c3cccc(Cl)c3)c2)c(Cl)cn1 [ULIXERTINIB]
inactive: Adenosine kinase > 30 µM | [1] > 30 µM | [2] > 30 µM | Myosin-14 > 30 µM | Pyridoxal kinase > 30 µM | [3] > 30 µM | [4] > 30 µM | [5] > 30 µM | ADP/ATP translocase 3 > 30 µM | [6] > 30 µM | [7] > 30 µM | Wee1-like protein kinase > 30 µM

COc1cc(CCc2cc(NC(=O)c3ccc(N4C[C@@H](C)N[C@@H](C)C4)cc3)n[nH]2)cc(OC)c1 [AZD-4547]
inactive: Adenosine kinase > 30 µM | [1] > 30 µM | Myosin-14 > 30 µM | Pyridoxal kinase > 30 µM | [3] > 30 µM | [4] > 30 µM | [5] > 30 µM | ADP/ATP translocase 3 > 30 µM | [6] > 30 µM | [7] > 30 µM | Wee1-like protein kinase > 30 µM

O=C(Nc1cccc(Cl)c1)Nc1ncc(CCNc2ncnc3ccsc23)s1 [SNS-314]
inactive: Adenosine kinase > 30 µM | [1] > 30 µM | [2] > 30 µM | Myosin-14 > 30 µM | Pyridoxal kinase > 30 µM | [3] > 30 µM | [4] > 30 µM | ADP/ATP translocase 3 > 30 µM | [7] > 30 µM | Wee1-like protein kinase > 30 µM

CNC(=O)c1ccc(-c2cnc3ncc(Cc4ccc5ncccc5c4)n3n2)cc1F [CAPMATINIB]
inactive: Adenosine kinase > 30 µM | [1] > 30 µM | [2] > 30 µM | Myosin-14 > 30 µM | Pyridoxal kinase > 30 µM | [5] > 30 µM | ADP/ATP translocase 3 > 30 µM | [6] > 30 µM | [7] > 30 µM | Wee1-like protein kinase > 30 µM

CN1N=C(N)c2cn([C@@H]3O[C@H](COP(=O)(O)O)[C@@H](O)[C@H]3O)c3ncnc1c23 [TRICIRIBINE PHOSPHATE]
inactive: Adenosine kinase > 30 µM | [1] > 30 µM | [2] > 30 µM | Myosin-14 > 30 µM | Pyridoxal kinase > 30 µM | [3] > 30 µM | [5] > 30 µM | ADP/ATP translocase 3 > 30 µM | [6] > 30 µM | [7] > 30 µM | Wee1-like protein kinase > 30 µM

O=C(c1ccc(F)c(F)c1Nc1ccc(I)cc1F)N1CC(O)([C@@H]2CCCCN2)C1 [COBIMETINIB]
inactive: [1] > 30 µM | [2] > 30 µM | Myosin-14 > 30 µM | Pyridoxal kinase > 30 µM | [3] > 30 µM | [4] > 30 µM | [5] > 30 µM | ADP/ATP translocase 3 > 30 µM | [6] > 30 µM | [7] > 30 µM | Wee1-like protein kinase > 30 µM

C[C@@H](Nc1cc(F)cc(F)c1)c1cc(C(=O)N(C)C)cc2c(=O)cc(N3CCOCC3)oc12 [AZD-8186]
inactive: Adenosine kinase > 30 µM | Myosin-14 > 30 µM | Pyridoxal kinase > 30 µM | [3] > 30 µM | [4] > 30 µM | [5] > 30 µM | ADP/ATP translocase 3 > 30 µM | [6] > 30 µM | [7] > 30 µM | Wee1-like protein kinase > 30 µM

From ChEMBL document CHEMBL3991601, “The target landscape of clinical kinase drugs” (Science, 2017)
